Measured values from patent US6716597B2, “Methods and products for regulating cell motility” (priority 2000, dated 2004).

Tested on: Rat2 fibroblasts
Experiment: Time-lapse videomicroscopy random migration assay (cell speed, polarity)
Assay type: cell-based, rat
Conditions: Rat2 cells
Protocol: Cells adapted to microscopy media (Life Technologies, Rockville, Md.) as described above were trypsinized, counted, and resuspended in microscopy media at 7.14×10^3 cells/mL. 1.4 mL (10,000 cells) of this cell suspension was added to a ΔT dish (Bioptechs Inc., Butler, Pa.) that had previously been coated overnight with 10 μg/mL fibronectin (Becton Dickinson) at 4° C. and then blocked with lmg/mL cell-culture-grade BSA (Sigma, St. Louis, Mo.). Cells were allowed to attach and spread for 1 hour at 37° C. before movies were initiated. 10x phase contrast movies were 4.5 hours long with a frame taken every five minutes. A custom time-lapse collection script written in IPLabs was used to automate microscope and camera function. Light was shutter controlled. […] Cell paths were generated from the calculated centroid positions and parameters (speed and membrane flow) were calculated from the resulting path file. Speed was calculated using the Central Difference Method in DIAS, which is equivalent to a root mean squared calculation. […]
Rat 2 cells were exposed to 0, 5 nM, 25 nM, 50 nM, or 500 nM cytochalasin D and motility was measured. One set of cells received no cytochalasin D. Other cells received a low dose of cytochalasin D (e.g. 5 nM or 25 nM) or a high dose of cytochalasin D. (e.g. 500 nM) The motility of the treated cells was assessed using the motility assay described above.

C=C1[C@@H](C)[C@H]2[C@H](Cc3ccccc3)NC(=O)[C@]23[C@H](OC(C)=O)/C=C/[C@@](C)(O)C(=O)[C@@H](C)C/C=C/[C@H]3[C@@H]1O [cytochalasin D, reference compound]
cell speed (25 nM (low dose)): increased
cell speed (500 nM (high dose)): decreased
